Results: US11649255B2, “Indazoles as hematopoietic progenitor kinase 1 (HPK1) inhibitors and methods using same” (1st Biotherapeutics, Inc., priority 2020, dated 2023)
pIC50: −log10 of the molar value.

Target: recombinant human HPK1 (Homo sapiens (Human), UniProt Q92918)
Experiment: HPK1 kinase assay (ADP-Glo)
Assay type: biochemical
Conditions: 25 μM ATP, MBP substrate
In short: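 Activity was read as ADP formed, detected by ADP-Glo luminescence after the reaction of 5 ng recombinant human HPK1 with MBP and ATP (stocks 0.5 μg/μl and 25 μM) for 40 min at 30 °C. Buffer was Tris pH 7.5 with MgCl2, BSA and DTT, with compound in 0.5% DMSO. IC50 came from inhibition curves.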

Chain of recombinant human HPK1 (Q92918 whole entry): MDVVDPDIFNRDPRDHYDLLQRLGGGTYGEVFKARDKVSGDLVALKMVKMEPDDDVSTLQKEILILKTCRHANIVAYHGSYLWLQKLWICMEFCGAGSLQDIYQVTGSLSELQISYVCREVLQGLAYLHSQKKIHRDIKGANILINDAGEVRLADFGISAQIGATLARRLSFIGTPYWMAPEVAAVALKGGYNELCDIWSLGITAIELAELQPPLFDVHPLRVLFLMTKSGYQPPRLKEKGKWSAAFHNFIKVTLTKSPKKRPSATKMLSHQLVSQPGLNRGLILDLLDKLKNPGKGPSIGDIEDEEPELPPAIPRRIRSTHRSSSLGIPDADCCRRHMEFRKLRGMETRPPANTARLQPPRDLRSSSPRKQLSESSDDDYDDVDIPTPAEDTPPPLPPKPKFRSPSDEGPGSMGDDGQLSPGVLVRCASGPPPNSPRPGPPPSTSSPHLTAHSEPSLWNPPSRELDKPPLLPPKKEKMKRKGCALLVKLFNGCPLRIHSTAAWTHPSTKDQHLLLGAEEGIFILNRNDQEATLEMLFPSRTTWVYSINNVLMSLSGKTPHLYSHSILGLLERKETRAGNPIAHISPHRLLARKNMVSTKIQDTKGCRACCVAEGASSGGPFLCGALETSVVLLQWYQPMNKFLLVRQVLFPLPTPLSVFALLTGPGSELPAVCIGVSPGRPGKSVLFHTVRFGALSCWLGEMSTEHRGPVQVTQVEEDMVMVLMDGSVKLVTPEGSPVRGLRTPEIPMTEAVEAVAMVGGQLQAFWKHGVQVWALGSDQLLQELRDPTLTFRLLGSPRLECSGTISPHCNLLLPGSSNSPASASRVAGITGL

Compound	pIC50
Cc1c(F)cc2[nH]ncc2c1-c1ccc2nc(NC(=O)[C@@H]3C[C@@H]3F)sc2c1 [Example 40, (1S,2S)-2-fluoro-N-(6-(6-fluoro-5-methyl-1H-indazol-4-yl)benzo[d]thiazol-2-yl)cyclopropane-1-carboxamide]	> 7.00
CNC1CCC(N(C)c2c(F)c(Cl)c(-c3ccn4nc(NC(=O)[C@@H]5C[C@@H]5F)cc4c3)c3cn[nH]c23)CC1 (stereo partly drawn) [Example 505, (1S,2S)-N-(5-(5-chloro-6-fluoro-7-(methyl((1S,4S)-4-(methylamino)cyclohexyl)amino)-1H-indazol-4-yl)pyrazolo[1,5-a]pyridin-2-yl)-2-fluorocyclopropane-1-carboxamide]	> 7.00
O=C(Nc1nc2ccc(-c3c(Cl)c(F)c(SCCCO)c4[nH]ncc34)cc2s1)[C@@H]1C[C@@H]1F [Example 86, (1S,2S)-N-(6-(5-chloro-6-fluoro-7-((3-hydroxypropyl)thio)-1H-indazol-4-yl)benzo[d]thiazol-2-yl)-2-fluorocyclopropanecarboxamide]	> 7.00
O=C(Nc1cn2cc(-c3c(Cl)c(F)c(Cn4nccn4)c4[nH]ncc34)ccc2n1)[C@@H]1C[C@@H]1F [Example 383, (1S,2S)-N-(6-(7-((2H-1,2,3-triazol-2-yl)methyl)-5-chloro-6-fluoro-1H-indazol-4-yl)imidazo[1,2-a]pyridin-2-yl)-2-fluorocyclopropane-1-carboxamide]	> 7.00
CN(C)c1c(F)c(Cl)c(-c2ccc3nc(NC(=O)NC4CC4)cn3c2)c2cn[nH]c12 [Example 387, 1-(6-(5-chloro-7-(dimethylamino)-6-fluoro-1H-indazol-4-yl)imidazo[1,2-a]pyridin-2-yl)-3-cyclopropylurea]	> 7.00
CC(=O)c1c(F)c(C)c(-c2ccc3nc(NC(=O)[C@@H]4C[C@@H]4F)sc3c2)c2cn[nH]c12 [Example 131, (1S,2S)-N-(6-(7-acetyl-6-fluoro-5-methyl-1H-indazol-4-yl)benzo[d]thiazol-2-yl)-2-fluorocyclopropane-1-carboxamide]	6.30 to 7.00
CSc1c(F)c(Cl)c(-c2ccc3nc(NC(=O)[C@@H]4C[C@@H]4F)cn3c2)c2cn[nH]c12 [Example 266, (1S,2S)-N-(6-(5-chloro-6-fluoro-7-(methylthio)-1H-indazol-4-yl)imidazo[1,2-a]pyridin-2-yl)-2-fluorocyclopropane-1-carboxamide]	> 7.00
CP(C)(=O)c1c(F)c(Cl)c(-c2ccc3nc(NC(=O)[C@@H]4C[C@@H]4F)cn3c2)c2cn[nH]c12 [Example 259, (1S,2S)-N-(6-(5-chloro-7-(dimethylphosphoryl)-6-fluoro-1H-indazol-4-yl)imidazo[1,2-a]pyridin-2-yl)-2-fluorocyclopropane-1-carboxamide]	< 6.00
C=Cc1cc(C)c(-c2ccc3nc(NC(=O)[C@@H]4C[C@@H]4F)cn3c2)c2cn[nH]c12 [Example 264, (1S,2S)-2-fluoro-N-(6-(5-methyl-7-vinyl-1H-indazol-4-yl)imidazo[1,2-a]pyridin-2-yl)cyclopropane-1-carboxamide]	> 7.00
O=C(Nc1cn2cc(-c3c(Cl)ccc4[nH]ncc34)ccc2n1)[C@@H]1C[C@@H]1F [Example 237, (1S,2S)-N-(6-(5-chloro-1H-indazol-4-yl)imidazo[1,2-a]pyridin-2-yl)-2-fluorocyclopropane-1-carboxamide]	> 7.00
CCc1c(F)c(N(C)CC)c2[nH]ncc2c1-c1ccc2nc(NC(=O)[C@@H]3C[C@@H]3F)sc2c1 [Example 136, (1S,2S)-N-(6-(5-ethyl-7-(ethyl(methyl)amino)-6-fluoro-1H-indazol-4-yl)benzo[d]thiazol-2-yl)-2-fluorocyclopropane-1-carboxamide]	> 7.00
NC(=O)c1c(F)c(Cl)c(-c2ccc3nc(NC(=O)[C@@H]4C[C@@H]4F)cn3c2)c2cn[nH]c12 [Example 325, 5-chloro-6-fluoro-4-(2-((1S,2S)-2-fluorocyclopropane-1-carboxamido)imidazo[1,2-a]pyridin-6-yl)-1H-indazole-7-carboxamide]	< 6.00
CCN(C)c1c(F)c(Cl)c(-c2ccc3nc(NC(=O)[C@@H]4C[C@@H]4F)cn3c2)c2cn[nH]c12 [Example 306, (1S,2S)-N-(6-(5-chloro-7-(ethyl(methyl)amino)-6-fluoro-1H-indazol-4-yl)imidazo[1,2-a]pyridin-2-yl)-2-fluorocyclopropane-1-carboxamide]	> 7.00
CC(NC(=O)C1CCC1)c1c(F)c(Cl)c(-c2ccc3nc(NC(=O)[C@@H]4C[C@@H]4F)cn3c2)c2cn[nH]c12 (stereo partly drawn) [Example 430, N-(1-(5-chloro-6-fluoro-4-(2-((1S,2S)-2-fluorocyclopropane-1-carboxamido)imidazo[1,2-a]pyridin-6-yl)-1H-indazol-7-yl)ethyl)cyclobutanecarboxamide]	> 7.00
O=C(Nc1nc2ccc(-c3c(Br)c(F)cc4[nH]ncc34)cc2s1)[C@@H]1C[C@@H]1F [Example 42, (1S,2S)-N-(6-(5-bromo-6-fluoro-1H-indazol-4-yl)benzo[d]thiazol-2-yl)-2-fluorocyclopropane-1-carboxamide]	6.30 to 7.00
CCOc1cc(C)c(-c2ccc3nc(NC(=O)[C@@H]4C[C@@H]4F)sc3c2)c2cn[nH]c12 [Example 101, (1S,2S)-N-(6-(7-ethoxy-5-methyl-1H-indazol-4-yl)benzo[d]thiazol-2-yl)-2-fluorocyclopropane-1-carboxamide]	> 7.00
CCOc1cc(C)c(-c2ccc3nc(NC(=O)[C@@H]4C[C@@H]4F)cn3c2)c2cn[nH]c12 [Example 287, (1S,2S)-N-(6-(7-ethoxy-5-methyl-1H-indazol-4-yl)imidazo[1,2-a]pyridin-2-yl)-2-fluorocyclopropane-1-carboxamide]	> 7.00

Second part, the compound after the results:

pIC50	Compound
> 7.00	CN(c1ncncn1)c1c(F)c(Cl)c(-c2ccn3nc(NC(=O)[C@@H]4C[C@@H]4F)cc3c2)c2cn[nH]c12 [Example 617, (1S,2S)-N-(5-(5-chloro-6-fluoro-7-(methyl(1,3,5-triazin-2-yl)amino)-1H-indazol-4-yl)pyrazolo[1,5-a]pyridin-2-yl)-2-fluorocyclopropane-1-carboxamide]
> 7.00	CCc1c(F)cc2[nH]ncc2c1-c1ccn2nc(NC(=O)[C@@H]3C[C@@H]3F)cc2c1 [Example 466, (1S,2S)-N-(5-(5-ethyl-6-fluoro-1H-indazol-4-yl)pyrazolo[1,5-a]pyridin-2-yl)-2-fluorocyclopropane-1-carboxamide]
> 7.00	CCc1c(F)c(SCC(=O)N(C)C)c2[nH]ncc2c1-c1ccn2nc(NC(=O)[C@@H]3C[C@@H]3F)cc2c1 [Example 522]
< 6.00	Cc1c(F)c(C(=O)O)c2[nH]ncc2c1-c1ccn2nc(NC(=O)[C@@H]3C[C@@H]3F)cc2c1 [Example 549, 6-fluoro-4-(2-((1S,2S)-2-fluorocyclopropane-1-carboxamido)pyrazolo[1,5-a]pyridin-5-yl)-5-methyl-1H-indazole-7-carboxylic acid]
> 7.00	CSc1c(F)cc2[nH]ncc2c1-c1ccn2nc(NC(=O)[C@@H]3C[C@H]3F)cc2c1 [Example 572, (1S,2R)-2-fluoro-N-(5-(6-fluoro-5-(methylthio)-1H-indazol-4-yl)pyrazolo[1,5-a]pyridin-2-yl)cyclopropane-1-carboxamide]
> 7.00	COC[C@@H](C)c1c(F)c(Cl)c(-c2ccn3nc(NC(=O)[C@@H]4C[C@@H]4F)cc3c2)c2cn[nH]c12 [Example 656, (1S,2S)-N-(5-(5-chloro-6-fluoro-7-((S)-1-methoxypropan-2-yl)-1H-indazol-4-yl)pyrazolo[1,5-a]pyridin-2-yl)-2-fluorocyclopropane-1-carboxamide]
> 7.00	CN(c1c(F)c(Cl)c(-c2ccn3nc(NC(=O)[C@@H]4C[C@@H]4F)cc3c2)c2cn[nH]c12)C1CCC1 [Example 620, (1S,2S)-N-(5-(5-chloro-7-(cyclobutyl(methyl)amino)-6-fluoro-1H-indazol-4-yl)pyrazolo[1,5-a]pyridin-2-yl)-2-fluorocyclopropane-1-carboxamide]
> 7.00	CN1CCN(c2c(F)c(Cl)c(-c3ccn4nc(NC(=O)[C@@H]5C[C@@H]5F)cc4c3)c3cn[nH]c23)CC1 [Example 495, (1S,2S)-N-(5-(5-chloro-6-fluoro-7-(4-methylpiperazin-1-yl)-1H-indazol-4-yl)pyrazolo[1,5-a]pyridin-2-yl)-2-fluorocyclopropane-1-carboxamide]
> 7.00	Cc1c(F)c(F)c2[nH]ncc2c1-c1ccn2nc(NC(=O)[C@@H]3C[C@@H]3F)cc2c1 [Example 481, (1S,2S)-N-(5-(6,7-difluoro-5-methyl-1H-indazol-4-yl)pyrazolo[1,5-a]pyridin-2-yl)-2-fluorocyclopropane-1-carboxamide]
> 7.00	Cn1nnnc1-c1c(F)c(Cl)c(-c2ccn3nc(NC(=O)[C@@H]4C[C@@H]4F)cc3c2)c2cn[nH]c12 [Example 594, (1S,2S)-N-(5-(5-chloro-6-fluoro-7-(1-methyl-1H-tetrazol-5-yl)-1H-indazol-4-yl)pyrazolo[1,5-a]pyridin-2-yl)-2-fluorocyclopropane-1-carboxamide]
> 7.00	CCOc1c(F)c(SC)c2[nH]ncc2c1-c1ccn2nc(NC(=O)[C@@H]3C[C@@H]3F)cc2c1 [Example 606, (1S,2S)-N-(5-(5-ethoxy-6-fluoro-7-(methylthio)-1H-indazol-4-yl)pyrazolo[1,5-a]pyridin-2-yl)-2-fluorocyclopropane-1-carboxamide]
> 7.00	CCc1c(F)c(C(F)(F)F)c2[nH]ncc2c1-c1ccn2nc(NC(=O)[C@@H]3C[C@@H]3F)cc2c1 [Example 585, (1S,2S)-N-(5-(5-ethyl-6-fluoro-7-(trifluoromethyl)-1H-indazol-4-yl)pyrazolo[1,5-a]pyridin-2-yl)-2-fluorocyclopropane-1-carboxamide]
> 7.00	COC(=O)c1c(F)c(C)c(-c2ccn3nc(NC(=O)[C@@H]4C[C@@H]4F)cc3c2)c2cn[nH]c12 [Example 548, methyl 6-fluoro-4-(2-((1S,2S)-2-fluorocyclopropane-1-carboxamido)pyrazolo[1,5-a]pyridin-5-yl)-5-methyl-1H-indazole-7-carboxylate]
